The results in this text go back to PMC4300089, “Structure-Guided Design of Selective Epac1 and Epac2 Agonists” (PLoS Biology, 2015).

The target of this assay is T1, Epac2^Δ280 (Mus musculus, UniProt Q9EQZ6).
T1 construct: made in house
T1 sequence (Q9EQZ6 281-993 isoform Q9EQZ6-3): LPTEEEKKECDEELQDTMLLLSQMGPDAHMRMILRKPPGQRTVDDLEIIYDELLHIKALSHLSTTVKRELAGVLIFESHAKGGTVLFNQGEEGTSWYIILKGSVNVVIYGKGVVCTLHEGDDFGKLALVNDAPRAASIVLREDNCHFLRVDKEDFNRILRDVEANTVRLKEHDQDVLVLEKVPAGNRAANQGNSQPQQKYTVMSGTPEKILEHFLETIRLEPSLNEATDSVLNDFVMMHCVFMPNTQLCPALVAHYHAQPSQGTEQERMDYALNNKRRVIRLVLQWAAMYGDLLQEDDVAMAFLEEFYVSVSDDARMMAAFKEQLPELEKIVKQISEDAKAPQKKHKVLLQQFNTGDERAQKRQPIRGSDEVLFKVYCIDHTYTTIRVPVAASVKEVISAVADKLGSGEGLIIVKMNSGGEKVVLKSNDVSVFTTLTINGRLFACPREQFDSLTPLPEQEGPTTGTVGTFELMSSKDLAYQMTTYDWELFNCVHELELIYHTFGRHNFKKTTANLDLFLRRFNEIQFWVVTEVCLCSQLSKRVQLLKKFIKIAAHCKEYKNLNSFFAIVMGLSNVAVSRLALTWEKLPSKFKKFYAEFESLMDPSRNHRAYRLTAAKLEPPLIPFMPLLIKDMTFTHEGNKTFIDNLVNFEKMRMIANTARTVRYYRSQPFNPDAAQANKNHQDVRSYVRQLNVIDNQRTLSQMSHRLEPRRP
Put plainly: Epac activation assay (Rap1B•mGDP fluorescence nucleotide exchange), Epac2^Δ280. The conditions noted are these: Epac2^Δ280; for Rel. kmax: maximal activity relative to cAMP. Format: biochemical. The method, then:
Murine Epac2 was used as all previous structural studies were performed with it.
The activity of Epac was determined by a fluorescence assay. […] The fluorescence intensity of Rap1B•mGDP is approximately twice that of free mGDP, and thus, nucleotide exchange can be observed as a decay in fluorescence upon the addition of excess unlabeled GDP.

In the case of `C[C@H](O)CNc1nc2c(N)ncnc2n1[C@@H]1O[C@@H]2COP(=O)(O)O[C@H]2[C@H]1O` [L-012, 8-(S-2-OHPrA)-cAMP], the activity was half-maximal at 8000 nM (AC50) and the Rel. kmax was 0.5.

On to 8-PIA-cAMP [L-019], for which the activity was half-maximal at 19000 nM (AC50) and the Rel. kmax was found to be 3.8.

Consider `Nc1ncnc2c1nc(Cl)n2[C@@H]1O[C@@H]2CO[P@](O)(=S)O[C@H]2[C@H]1Cl` [S-021], for which half-maximal activity (AC50) was put at 12000 nM and the Rel. kmax is 0.5.

In the case of `Nc1ncnc2c1nc(Sc1ccc(O)cc1)n2[C@@H]1O[C@@H]2CO[P@](O)(=S)O[C@H]2[C@H]1O` [S-200, Sp-8-pOHPT-cAMPS], the activity was half-maximal at 70 nM (AC50) and the Rel. kmax stood at 1.2.

`CSc1nc2c(N)ncnc2n1[C@@H]1O[C@@H]2COP(=O)(O)O[C@H]2[C@H]1O` [L-024, 8-MeT-cAMP]: the AC50 (commonly the concentration at which the activity in the assay is half-maximal) was determined as 140 nM and the Rel. kmax was 2.0.

Regarding `Nc1ncnc2c1nc(Sc1ccc(O)cc1)n2[C@@H]1O[C@@H]2CO[P@](O)(=S)O[C@H]2[C@H]1F` [S-201, Sp-8-pOHPT-2′-F-cAMPS], the half-maximal activity concentration (AC50) is 1600 nM and the Rel. kmax was 1.0.

The molecule `C[Se]c1nc2c(N)ncnc2n1[C@@H]1O[C@@H]2COP(=O)(O)O[C@H]2[C@H]1O` [L-027, 8-MeSe-cAMP] had a half-maximal activity concentration (AC50) of 180 nM and a Rel. kmax of 1.5.

With `CO[C@@H]1[C@@H]2O[P@@](O)(=S)OC[C@H]2O[C@H]1n1c(SC)nc2c(N)ncnc21` [S-180, Sp-8-MeT-2′-O-Me-cAMPS], half-maximal activity (AC50) was put at 3700 nM and the Rel. kmax was determined as 3.2.

Take `CO[C@@H]1[C@@H]2O[P@@](O)(=S)OC[C@H]2O[C@H]1n1c(Sc2ccc(O)cc2)nc2c(N)ncnc21` [S-202, Sp-8-pOHPT-2′-O-Me-cAMPS]: the AC50 was 1600 nM and the Rel. kmax is reported as 1.4.

Take `COc1ccc(CSc2nc3c(N)ncnc3n2[C@@H]2O[C@@H]3CO[P@](O)(=S)O[C@H]3[C@H]2O)cc1` [S-250, Sp-8-pMeOBnT-cAMPS]: the half-maximal activity concentration (AC50) was 110 nM and the Rel. kmax came out at 5.4.

In the case of `Nc1ncnc2c1nc(SCc1ccccc1)n2[C@@H]1O[C@@H]2COP(=O)(O)O[C@H]2[C@H]1F` [D-011, 8-BnT-2′-F-cAMP], half-maximal activity (AC50) was put at 2900 nM and the Rel. kmax was determined as 1.6.

Consider `CN(C)c1nc2c(N)ncnc2n1[C@@H]1O[C@@H]2COP(=O)(O)O[C@H]2[C@H]1O` [L-015, 8-DMeA-cAMP], for which the AC50 worked out at 1400 nM and the Rel. kmax was 3.6.

Molecule `CCCCO[C@@H]1[C@@H]2OP(=O)(O)OC[C@H]2O[C@H]1n1cnc2c(N)ncnc21` [Z-006, 2′-O-Bu-cAMP] came in with a concentration at half-maximal activity (AC50) of 120000 nM and a Rel. kmax of 1.0.

As to `COc1nc2c(N)ncnc2n1[C@@H]1O[C@@H]2COP(=O)(O)O[C@H]2[C@H]1O` [L-022, 8-MeO-cAMP], the activity was half-maximal at 600 nM (AC50) and the Rel. kmax worked out at 2.0.

`Nc1ncnc2c1nc(N1CCCCC1)n2[C@@H]1O[C@@H]2CO[P@](O)(=S)O[C@H]2[C@H]1O` [S-110, Sp-8-PIP-cAMPS] had an AC50 of 9500 nM and a Rel. kmax of 3.7.

`CC(C)Nc1nc2c(N)ncnc2n1[C@@H]1O[C@@H]2CO[P@](O)(=S)O[C@H]2[C@H]1O` [S-050, Sp-8-iPrA-cAMPS] registered an AC50 of 9000 nM and a Rel. kmax of 1.4.

`NCCNc1nc2c(N)ncnc2n1[C@@H]1O[C@@H]2COP(=O)(O)O[C@H]2[C@H]1O` [L-006, 8-AEA-cAMP] registered an AC50 of 1600 nM and a Rel. kmax of 0.5.

In turn, `CCN(C)c1nc2c(N)ncnc2n1[C@@H]1O[C@@H]2CO[P@](O)(=S)O[C@H]2[C@H]1O` [S-080, Sp-8-EMeA-cAMPS] showed an AC50 of 1800 nM and a Rel. kmax of 7.6.

Take `Nc1ncnc2c1nc(SCc1cccc([N+](=O)[O-])c1)n2[C@@H]1O[C@@H]2CO[P@](O)(=S)O[C@H]2[C@H]1O` [S-290, Sp-8-mNBnT-cAMPS]: half-maximal activity (AC50) was put at 160 nM and the Rel. kmax worked out at 4.3.

Turning to `O=P1(O)OC[C@H]2O[C@@H](n3cnc4c(Nc5ccccc5)ncnc43)[C@H](O)[C@@H]2O1` [N-003, N^6-Phe-cAMP], the activity was half-maximal at 300 nM (AC50) and the Rel. kmax was found to be 0.6.

Molecule `Nc1ncnc2c1nc(Br)n2[C@H]1C[C@@H]2O[P@@](O)(=S)OC[C@H]2O1` [S-011, Sp-8-Br-2′dcAMPS] gave a half-maximal activity concentration (AC50) of 9000 nM and a Rel. kmax of 0.8.

For `CNc1nc2c(N)ncnc2n1[C@@H]1O[C@@H]2CO[P@](O)(=S)O[C@H]2[C@H]1F` [S-032, Sp-8-MeA-2′-F-cAMPS], the activity was half-maximal at 9500 nM (AC50) and the Rel. kmax was 3.9.

As to `Nc1ncnc2c1nc(Cl)n2[C@@H]1O[C@@H]2COP(=O)(O)O[C@H]2[C@H]1Cl` [D-006, 8,2′-DCl-cAMP], half-maximal activity (AC50) was put at 14000 nM and the Rel. kmax came to 0.7.

Turning to `[N-]=[N+]=Nc1nc2c(N)ncnc2n1[C@@H]1O[C@@H]2COP(=O)(O)O[C@H]2[C@H]1O` [L-004, 8-N3-cAMP], half-maximal activity (AC50) was put at 200 nM and the Rel. kmax amounted to 0.7.

As to `COc1nc2c(N)ncnc2n1[C@@H]1O[C@@H]2CO[P@](O)(=S)O[C@H]2[C@H]1O` [S-140, Sp-8-MeO-cAMPS], the activity was half-maximal at 700 nM (AC50) and the Rel. kmax stood at 7.3.

In the case of `CSc1nc2c(N)ncnc2n1[C@@H]1O[C@@H]2CO[P@](O)(=S)O[C@H]2[C@H]1O` [S-160, Sp-8-MeT-cAMPS], the half-maximal activity concentration (AC50) was determined as 300 nM and the Rel. kmax is 7.4.

`Nc1ncnc2c1nc(SCc1ccc(Cl)cc1)n2[C@@H]1O[C@@H]2CO[P@](O)(=S)O[C@H]2[C@H]1O` [S-260, Sp-8-pCBnT-cAMPS] yielded a concentration at half-maximal activity (AC50) of 80 nM and a Rel. kmax of 4.3.

Regarding `Nc1ncnc2c1nc(NCCO)n2[C@@H]1O[C@@H]2COP(=O)(O)O[C@H]2[C@H]1O` [L-007, 8-OHEA-cAMP], the AC50 is 2600 nM and the Rel. kmax came to 1.0.

Molecule `CSc1nc2c(N)ncnc2n1[C@@H]1O[C@@H]2CO[P@](O)(=S)O[C@H]2[C@H]1F` [S-170, Sp-8-MeT-2′-F-cAMPS] had an AC50 of 6900 nM and a Rel. kmax of 2.8.

`NCCCCCCNc1nc2c(N)ncnc2n1[C@@H]1O[C@@H]2COP(=O)(O)O[C@H]2[C@H]1O` [L-010, 8-AHA-cAMP] yielded a concentration at half-maximal activity (AC50) of 1200 nM and a Rel. kmax of 1.8.

As to `Nc1ncnc2c1nc(SCc1cccc(C(F)(F)F)c1)n2[C@@H]1O[C@@H]2CO[P@](O)(=S)O[C@H]2[C@H]1O` [S-300, Sp-8-mTFMeBnT-cAMPS], the concentration at half-maximal activity (AC50) worked out at 140 nM and the Rel. kmax is reported as 5.0.

In the case of `CCCCCCNc1nc2c(N)ncnc2n1[C@@H]1O[C@@H]2COP(=O)(O)OC2[C@@H]1O` (stereo partly drawn) [L-009, 8-HA-cAMP], the half-maximal activity concentration (AC50) is 2500 nM and the Rel. kmax stood at 2.0.

The molecule `Nc1ncnc2c1nc(SCc1ccc(F)cc1)n2[C@@H]1O[C@@H]2CO[P@](O)(=S)O[C@H]2[C@H]1O` [S-280, Sp-8-pFBnT-cAMPS] gave an AC50 of 110 nM and a Rel. kmax of 4.9.

For `CO[C@@H]1[C@@H]2OP(=O)(O)OC[C@H]2O[C@H]1n1c([Se]Cc2ccccc2)nc2c(N)ncnc21` [D-013, 8-BnSe-2′-O-Me-cAMP], the activity was half-maximal at 3600 nM (AC50) and the Rel. kmax was 2.3.

Molecule `CNc1nc2c(N)ncnc2n1[C@@H]1O[C@@H]2CO[P@](O)(=S)O[C@H]2[C@H]1OC` [S-034, Sp-8-MeA-2′-O-Me-cAMPS] showed an AC50 of 20000 nM and a Rel. kmax of 0.7.
